Reference: ChEMBL document CHEMBL1821711, “Design and synthesis of novel arylpiperazine derivatives containing the imidazole core targeting 5-HT(2A) receptor and 5-HT transporter” (J Med Chem, 2011)

How the values were obtained:
Cytochrome P450 2D6 = Cytochrome P450 2D6 (Homo sapiens, UniProt P10635)
Description: Inhibition of human recombinant CYP2D6 by luceferin-based assay

Cytochrome P450 1A2 = target: T1, Cytochrome P450 1A2 (Homo sapiens, UniProt P05177)
T1 sequence (P05177 whole entry): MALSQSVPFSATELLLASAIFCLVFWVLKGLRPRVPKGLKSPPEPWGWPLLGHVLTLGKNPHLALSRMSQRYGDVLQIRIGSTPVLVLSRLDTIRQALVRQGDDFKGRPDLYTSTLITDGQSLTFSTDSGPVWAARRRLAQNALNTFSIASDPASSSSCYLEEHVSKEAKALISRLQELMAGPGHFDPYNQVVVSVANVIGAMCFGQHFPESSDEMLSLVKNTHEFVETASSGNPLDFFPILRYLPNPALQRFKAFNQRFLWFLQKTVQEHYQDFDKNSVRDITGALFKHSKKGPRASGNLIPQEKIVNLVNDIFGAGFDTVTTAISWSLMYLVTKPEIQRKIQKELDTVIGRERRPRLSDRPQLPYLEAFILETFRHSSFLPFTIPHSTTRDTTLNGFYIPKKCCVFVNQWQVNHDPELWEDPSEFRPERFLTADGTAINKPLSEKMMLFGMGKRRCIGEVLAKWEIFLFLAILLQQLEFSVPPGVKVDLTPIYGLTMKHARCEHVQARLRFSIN
Description: Inhibition of human recombinant CYP1A2 by luceferin-based assay

Cytochrome P450 3A4 = Cytochrome P450 3A4 (Homo sapiens, UniProt P08684)
Chain of Cytochrome P450 3A4 (P08684 whole entry): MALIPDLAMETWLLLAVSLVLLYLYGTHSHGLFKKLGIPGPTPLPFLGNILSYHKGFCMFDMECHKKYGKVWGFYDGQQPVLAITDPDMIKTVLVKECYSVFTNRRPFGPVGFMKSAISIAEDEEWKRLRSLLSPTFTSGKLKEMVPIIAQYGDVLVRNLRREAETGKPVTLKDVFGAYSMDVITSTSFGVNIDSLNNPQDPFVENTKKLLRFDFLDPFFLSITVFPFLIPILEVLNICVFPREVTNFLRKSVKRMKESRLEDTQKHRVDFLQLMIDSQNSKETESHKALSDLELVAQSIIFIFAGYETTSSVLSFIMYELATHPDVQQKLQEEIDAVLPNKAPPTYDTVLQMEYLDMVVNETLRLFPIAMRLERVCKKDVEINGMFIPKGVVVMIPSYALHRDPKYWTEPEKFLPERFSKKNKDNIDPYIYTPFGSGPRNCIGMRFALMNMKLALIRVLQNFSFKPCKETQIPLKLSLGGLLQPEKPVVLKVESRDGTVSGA
Description: Inhibition of human recombinant CYP3A4 by luceferin-based assay

[1] = target: Voltage-gated inwardly rectifying potassium channel KCNH2 (Homo sapiens, UniProt Q12809)
Chain of Voltage-gated inwardly rectifying potassium channel KCNH2 (Q12809 whole entry): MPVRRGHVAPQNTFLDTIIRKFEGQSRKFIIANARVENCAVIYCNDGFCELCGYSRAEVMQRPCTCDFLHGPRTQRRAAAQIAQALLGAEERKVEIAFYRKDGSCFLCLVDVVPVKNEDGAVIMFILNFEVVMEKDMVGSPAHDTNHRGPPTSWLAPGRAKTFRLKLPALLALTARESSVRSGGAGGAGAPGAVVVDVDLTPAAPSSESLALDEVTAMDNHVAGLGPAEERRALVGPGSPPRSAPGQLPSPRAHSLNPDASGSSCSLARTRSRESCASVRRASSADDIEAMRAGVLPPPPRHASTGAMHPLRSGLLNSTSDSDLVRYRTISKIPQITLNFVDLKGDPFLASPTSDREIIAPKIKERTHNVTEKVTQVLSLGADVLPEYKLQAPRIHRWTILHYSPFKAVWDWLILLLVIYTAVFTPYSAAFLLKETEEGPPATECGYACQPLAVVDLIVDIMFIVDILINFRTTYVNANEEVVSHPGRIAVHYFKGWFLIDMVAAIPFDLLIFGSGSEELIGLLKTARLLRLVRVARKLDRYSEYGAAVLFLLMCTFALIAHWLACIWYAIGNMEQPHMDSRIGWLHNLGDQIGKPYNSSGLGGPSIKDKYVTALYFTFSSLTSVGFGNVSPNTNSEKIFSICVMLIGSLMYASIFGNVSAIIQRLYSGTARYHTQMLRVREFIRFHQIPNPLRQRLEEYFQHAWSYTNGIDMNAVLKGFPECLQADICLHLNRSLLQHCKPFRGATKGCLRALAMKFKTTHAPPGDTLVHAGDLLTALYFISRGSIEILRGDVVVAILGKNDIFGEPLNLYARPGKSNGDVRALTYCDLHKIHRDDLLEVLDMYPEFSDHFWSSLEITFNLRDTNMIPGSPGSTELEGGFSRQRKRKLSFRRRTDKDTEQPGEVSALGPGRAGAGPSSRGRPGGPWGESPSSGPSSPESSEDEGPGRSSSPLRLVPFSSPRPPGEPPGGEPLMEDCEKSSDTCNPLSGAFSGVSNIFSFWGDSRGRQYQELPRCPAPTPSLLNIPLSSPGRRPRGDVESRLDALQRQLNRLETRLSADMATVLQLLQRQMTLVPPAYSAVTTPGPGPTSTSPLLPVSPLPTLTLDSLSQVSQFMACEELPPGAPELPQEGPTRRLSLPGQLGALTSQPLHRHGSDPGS
Description: Displacement of [3H]astemizole from human ERG expressed in HEK293 cells

Cytochrome P450 2C9 = Cytochrome P450 2C9 (Homo sapiens, UniProt P11712)
Chain of Cytochrome P450 2C9 (P11712 whole entry): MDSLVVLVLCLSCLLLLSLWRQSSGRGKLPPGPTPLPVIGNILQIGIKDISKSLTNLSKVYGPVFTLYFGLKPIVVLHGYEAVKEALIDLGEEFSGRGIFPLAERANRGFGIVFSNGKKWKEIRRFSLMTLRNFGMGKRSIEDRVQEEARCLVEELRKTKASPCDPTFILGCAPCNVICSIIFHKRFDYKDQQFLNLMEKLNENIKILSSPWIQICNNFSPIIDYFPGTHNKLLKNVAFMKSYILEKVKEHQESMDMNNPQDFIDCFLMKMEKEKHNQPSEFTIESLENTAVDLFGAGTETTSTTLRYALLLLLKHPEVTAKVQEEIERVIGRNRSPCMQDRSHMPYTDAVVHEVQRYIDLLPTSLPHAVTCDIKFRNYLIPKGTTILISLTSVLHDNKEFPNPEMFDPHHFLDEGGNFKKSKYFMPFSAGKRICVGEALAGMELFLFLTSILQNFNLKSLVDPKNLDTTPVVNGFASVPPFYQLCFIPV
Description: Inhibition of human recombinant CYP2C9 by luceferin-based assay

in vitro = conditions: mouse, ht-22
Description: Cytotoxicity against mouse HT22 cells after 48 hrs by MTT assay

[2] = target: T2, 5-hydroxytryptamine receptor 2C (Homo sapiens, UniProt P28335); experiment: biochemical; format: cell-based, CHO-K1
T2 sequence (P28335 whole entry): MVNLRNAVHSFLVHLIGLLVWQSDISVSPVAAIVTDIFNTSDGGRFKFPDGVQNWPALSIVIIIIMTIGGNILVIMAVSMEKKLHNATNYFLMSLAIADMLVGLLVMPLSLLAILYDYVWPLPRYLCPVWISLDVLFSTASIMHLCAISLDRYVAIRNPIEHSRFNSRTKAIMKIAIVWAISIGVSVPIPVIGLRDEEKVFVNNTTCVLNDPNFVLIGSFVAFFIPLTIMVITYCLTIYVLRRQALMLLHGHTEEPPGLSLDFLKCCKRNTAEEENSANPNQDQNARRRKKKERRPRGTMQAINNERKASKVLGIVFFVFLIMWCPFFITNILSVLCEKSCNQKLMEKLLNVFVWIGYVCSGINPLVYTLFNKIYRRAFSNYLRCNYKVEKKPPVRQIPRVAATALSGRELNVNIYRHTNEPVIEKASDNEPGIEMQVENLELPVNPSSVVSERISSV
Description: Displacement of [3H]mesulergine from human recombinant 5-HT2C receptor expressed in CHO-K1 cells

D(2) dopamine receptor = D(2) dopamine receptor (Homo sapiens, UniProt P14416)
Chain of D(2) dopamine receptor (P14416 whole entry): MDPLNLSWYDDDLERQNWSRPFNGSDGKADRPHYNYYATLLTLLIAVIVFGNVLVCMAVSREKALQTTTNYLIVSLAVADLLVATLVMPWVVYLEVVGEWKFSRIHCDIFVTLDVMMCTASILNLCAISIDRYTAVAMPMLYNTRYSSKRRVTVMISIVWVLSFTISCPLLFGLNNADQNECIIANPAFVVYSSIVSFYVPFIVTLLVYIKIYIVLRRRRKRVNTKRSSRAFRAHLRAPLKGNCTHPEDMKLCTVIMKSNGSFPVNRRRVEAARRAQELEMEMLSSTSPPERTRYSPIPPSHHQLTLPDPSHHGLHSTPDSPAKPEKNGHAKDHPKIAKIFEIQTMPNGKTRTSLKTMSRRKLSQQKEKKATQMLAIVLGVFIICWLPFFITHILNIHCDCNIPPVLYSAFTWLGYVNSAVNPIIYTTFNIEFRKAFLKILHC
Description: Inhibition of dopamine D2 receptor by competition binding assay

[3] = target: 5-hydroxytryptamine receptor 6 (Homo sapiens, UniProt P50406)
Chain of 5-hydroxytryptamine receptor 6 (P50406 whole entry): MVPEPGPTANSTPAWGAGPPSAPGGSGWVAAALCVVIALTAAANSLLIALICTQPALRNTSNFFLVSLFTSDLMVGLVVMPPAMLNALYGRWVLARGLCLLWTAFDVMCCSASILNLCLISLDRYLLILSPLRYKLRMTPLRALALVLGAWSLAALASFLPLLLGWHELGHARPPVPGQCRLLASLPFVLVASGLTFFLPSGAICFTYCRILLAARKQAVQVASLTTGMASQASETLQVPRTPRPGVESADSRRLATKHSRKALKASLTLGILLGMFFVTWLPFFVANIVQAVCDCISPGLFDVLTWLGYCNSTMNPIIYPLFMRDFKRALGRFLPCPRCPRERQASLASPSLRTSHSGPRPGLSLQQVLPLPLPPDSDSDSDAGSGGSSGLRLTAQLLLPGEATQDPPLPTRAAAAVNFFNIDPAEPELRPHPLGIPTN
Description: Inhibition of 5HT6 receptor by competition binding assay

[4] = target: T3, 5-hydroxytryptamine receptor 1A (Homo sapiens, UniProt P08908)
T3 sequence (P08908 whole entry): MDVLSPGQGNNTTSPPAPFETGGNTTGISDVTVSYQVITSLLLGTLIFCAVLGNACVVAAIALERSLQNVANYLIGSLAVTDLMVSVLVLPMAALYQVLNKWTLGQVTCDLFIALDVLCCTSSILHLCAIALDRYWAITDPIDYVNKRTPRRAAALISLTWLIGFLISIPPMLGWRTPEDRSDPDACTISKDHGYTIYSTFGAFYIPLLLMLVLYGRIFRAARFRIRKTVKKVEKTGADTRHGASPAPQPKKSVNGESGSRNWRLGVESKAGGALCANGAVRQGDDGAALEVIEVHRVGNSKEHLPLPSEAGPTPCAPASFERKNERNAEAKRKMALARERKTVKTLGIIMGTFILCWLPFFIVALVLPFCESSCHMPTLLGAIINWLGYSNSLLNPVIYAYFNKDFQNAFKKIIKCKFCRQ
Description: Inhibition of 5HT1A receptor by competition binding assay

D(4) dopamine receptor = target: T4, D(4) dopamine receptor (Homo sapiens, UniProt P21917)
T4 sequence (P21917 whole entry): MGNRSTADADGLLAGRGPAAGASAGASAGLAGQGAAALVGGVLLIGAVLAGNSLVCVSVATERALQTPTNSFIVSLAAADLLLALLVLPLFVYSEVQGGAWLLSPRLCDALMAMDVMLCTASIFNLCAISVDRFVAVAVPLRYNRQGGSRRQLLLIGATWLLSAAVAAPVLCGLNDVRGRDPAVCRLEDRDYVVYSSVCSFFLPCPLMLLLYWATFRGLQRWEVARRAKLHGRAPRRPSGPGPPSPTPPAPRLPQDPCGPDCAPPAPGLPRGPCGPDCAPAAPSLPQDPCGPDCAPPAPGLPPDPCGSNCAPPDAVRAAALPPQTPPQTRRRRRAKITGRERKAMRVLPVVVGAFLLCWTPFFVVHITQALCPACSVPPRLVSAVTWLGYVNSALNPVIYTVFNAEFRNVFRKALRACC
Description: inhibition of dopamine D4 receptor by competition binding assay

D(3) dopamine receptor = D(3) dopamine receptor (Homo sapiens, UniProt P35462)
Chain of D(3) dopamine receptor (P35462 whole entry): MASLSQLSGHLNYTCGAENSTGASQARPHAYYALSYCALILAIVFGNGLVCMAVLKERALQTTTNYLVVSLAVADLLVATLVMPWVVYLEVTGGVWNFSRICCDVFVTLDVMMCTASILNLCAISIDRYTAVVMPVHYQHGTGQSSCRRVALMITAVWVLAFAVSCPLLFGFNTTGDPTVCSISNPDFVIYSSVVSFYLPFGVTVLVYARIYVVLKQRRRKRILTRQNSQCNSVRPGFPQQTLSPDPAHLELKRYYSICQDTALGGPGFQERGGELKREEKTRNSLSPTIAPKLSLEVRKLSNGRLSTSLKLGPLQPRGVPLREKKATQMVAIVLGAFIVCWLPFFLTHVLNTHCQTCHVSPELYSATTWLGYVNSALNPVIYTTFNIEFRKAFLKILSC
Description: Inhibition of dopamine D3 receptor by competition binding assay

[5] = target: 5-hydroxytryptamine receptor 7 (Homo sapiens, UniProt P34969)
Chain of 5-hydroxytryptamine receptor 7 (P34969 whole entry): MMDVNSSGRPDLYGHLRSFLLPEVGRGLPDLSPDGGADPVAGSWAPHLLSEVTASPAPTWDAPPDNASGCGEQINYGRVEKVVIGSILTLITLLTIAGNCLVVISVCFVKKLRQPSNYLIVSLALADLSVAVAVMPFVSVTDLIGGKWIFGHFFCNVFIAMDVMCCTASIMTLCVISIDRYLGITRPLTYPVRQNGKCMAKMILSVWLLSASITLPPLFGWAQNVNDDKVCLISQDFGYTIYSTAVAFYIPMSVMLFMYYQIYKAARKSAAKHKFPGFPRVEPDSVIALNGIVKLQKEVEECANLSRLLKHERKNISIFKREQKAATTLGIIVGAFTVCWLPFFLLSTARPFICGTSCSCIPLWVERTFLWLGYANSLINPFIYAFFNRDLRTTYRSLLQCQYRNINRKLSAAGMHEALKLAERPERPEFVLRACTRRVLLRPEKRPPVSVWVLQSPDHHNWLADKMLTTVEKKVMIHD
Description: Inhibition of 5HT7 receptor by competition binding assay

Chain of Cytochrome P450 2D6 (P10635 whole entry): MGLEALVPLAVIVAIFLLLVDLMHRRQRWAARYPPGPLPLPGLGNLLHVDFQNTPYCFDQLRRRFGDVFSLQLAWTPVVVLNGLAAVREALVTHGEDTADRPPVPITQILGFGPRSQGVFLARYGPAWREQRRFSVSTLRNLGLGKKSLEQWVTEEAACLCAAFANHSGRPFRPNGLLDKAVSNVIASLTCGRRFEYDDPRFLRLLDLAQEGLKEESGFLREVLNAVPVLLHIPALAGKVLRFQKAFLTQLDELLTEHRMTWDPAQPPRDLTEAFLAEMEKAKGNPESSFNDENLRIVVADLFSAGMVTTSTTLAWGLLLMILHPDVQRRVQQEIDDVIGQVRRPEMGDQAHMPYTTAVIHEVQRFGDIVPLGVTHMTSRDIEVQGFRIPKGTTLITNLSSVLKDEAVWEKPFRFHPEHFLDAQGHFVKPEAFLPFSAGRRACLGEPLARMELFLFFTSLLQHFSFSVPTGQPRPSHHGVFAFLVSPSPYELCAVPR

IC50 (Cytochrome P450 2D6) [µM]	IC50 (Cytochrome P450 1A2) [µM]	IC50 (Cytochrome P450 3A4) [µM]	IC50 (Cytochrome P450 2C9) [µM]	IC50 [2] [µM]	IC50 (D(2) dopamine receptor) [µM]	IC50 [3] [µM]	IC50 [4] [µM]	IC50 (D(4) dopamine receptor) [µM]	IC50 (D(3) dopamine receptor) [µM]	IC50 [5] [µM]	SMILES	IC50 [1] [µM]	CC50 at 48 h (in vitro) [µM]
17.9	> 20	> 20	4.4	4	–	–	–	–	–	–	Cc1cccc(N2CCN(CCCNC(=O)c3nc(C)n(-c4ccc5c(c4)OCCO5)c3C)CC2)c1C	8.7	19.3
–	–	–	–	–	0.908	1.68	0.0039	3.94	2.19	0.0068	Cc1nc(C(=O)NCCN2CCN(c3cccc(Cl)c3Cl)CC2)c(C)n1-c1ccccc1	> 10	–
